For series [1], the target named is T1, MAP/microtubule affinity-regulating kinase 4 (Homo sapiens) (UniProt Q96L34).
T1 sequence (whole entry): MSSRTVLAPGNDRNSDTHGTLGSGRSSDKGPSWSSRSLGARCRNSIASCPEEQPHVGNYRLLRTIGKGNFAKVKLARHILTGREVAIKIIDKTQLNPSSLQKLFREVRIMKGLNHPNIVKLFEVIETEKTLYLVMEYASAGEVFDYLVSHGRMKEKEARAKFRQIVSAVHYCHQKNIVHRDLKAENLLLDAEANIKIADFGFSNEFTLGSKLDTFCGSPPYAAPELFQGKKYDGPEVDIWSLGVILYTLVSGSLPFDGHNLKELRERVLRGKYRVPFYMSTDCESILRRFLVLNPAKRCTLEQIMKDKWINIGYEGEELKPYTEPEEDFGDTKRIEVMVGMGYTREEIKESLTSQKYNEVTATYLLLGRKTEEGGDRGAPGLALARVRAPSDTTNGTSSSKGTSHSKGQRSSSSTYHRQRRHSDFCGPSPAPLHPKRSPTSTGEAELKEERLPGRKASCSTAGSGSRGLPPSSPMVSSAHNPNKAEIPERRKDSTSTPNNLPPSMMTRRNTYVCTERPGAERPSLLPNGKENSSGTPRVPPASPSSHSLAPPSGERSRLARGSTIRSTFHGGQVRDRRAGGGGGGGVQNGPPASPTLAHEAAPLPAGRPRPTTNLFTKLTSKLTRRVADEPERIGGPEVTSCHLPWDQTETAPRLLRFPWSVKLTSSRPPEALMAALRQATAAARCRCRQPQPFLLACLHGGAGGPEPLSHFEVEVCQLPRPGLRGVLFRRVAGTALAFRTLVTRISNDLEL
Kind of series: Binding affinity to MARK4 (unknown origin) (59 to 368 residues) expressed in Escherichia coli M15 up to 10 uM by fluorescence based Stern-Volmer plot analysis.

Series [2] has as its system MCF7. Briefly: Induction of apoptosis in human MCF7 cells assessed as early apoptotic cells at IC50 after 24 to 48 hrs by Annexin V-FITC staining-based flow cytometric analysis (reference value: 0%). In kind it is functional.
In series [3] the test system is HepG2. Briefly: Induction of apoptosis in human HepG2 cells assessed as viable cells at IC50 after 24 to 48 hrs by Annexin V-FITC staining-based flow cytometric analysis relative to control. The class given is functional.
The target of series [4] is T2, MAP/microtubule affinity-regulating kinase 4 (Homo sapiens, UniProt Q96L34).
T2 sequence (Q96L34 whole entry): T1 sequence (whole entry)
Kind of series: Inhibition of MARK4 (unknown origin) (59 to 368 residues) expressed in Escherichia coli M15 in presence of [gamma-32P]ATP by ATPase assay.

For series [5], the system named is HepG2. Briefly: Induction of apoptosis in human HepG2 cells assessed as late apoptotic cells at IC50 after 24 to 48 hrs by Annexin V-FITC staining-based flow cytometric analysis (reference value: 0%). The class given is functional.
Series [6] relates to HepG2. Briefly: Induction of apoptosis in human HepG2 cells assessed as early apoptotic cells at IC50 after 24 to 48 hrs by Annexin V-FITC staining-based flow cytometric analysis (reference value: 0%). The class given is functional.
In series [7] the test system is HepG2. Kind of series: Induction of apoptosis in human HepG2 cells assessed as necrotic cells at IC50 after 24 to 48 hrs by Annexin V-FITC staining-based flow cytometric analysis (reference value: 0%). The class given is functional.
In series [8] the target is T1, MAP/microtubule affinity-regulating kinase 4 (Homo sapiens). Kind of series: Inhibition of MARK4-mediated tau phosphorylation in human MCF7 cells at IC50 after 24 hrs by flow cytometric analysis. In kind it is cell-based.
The target is the same in series [9]. Briefly: Inhibition of MARK4 (unknown origin) (59 to 368 residues) expressed in Escherichia coli M15 3 to 10 uM by dot blot assay.
Series [10] has as its system MCF7. Briefly: Antiproliferative activity against human MCF7 cells after 48 hrs by MTT assay. In kind it is functional, cell-based. The conditions noted are these: for IC50: MCF7, 48 h.
The test system of series [11] is HepG2. Briefly: Antiproliferative activity against human HepG2 cells after 48 hrs by MTT assay. In kind it is functional, cell-based. The conditions noted are these: for IC50: HepG2, 48 h.
A short description of series [12]: Cytotoxicity against human HEK293 cells assessed as cell viability up to 200 uM after 72 hrs by MTT assay relative to control. The settings on record: read-out: Activity. In kind it is cell-based.
Series [13] deals with MCF7. Briefly: Induction of apoptosis in human MCF7 cells assessed as late apoptotic cells at IC50 after 24 to 48 hrs by Annexin V-FITC staining-based flow cytometric analysis (reference value: 0%). In kind it is functional.
Series [14] has as its system MCF7. Briefly: Induction of apoptosis in human MCF7 cells assessed as necrotic cells at IC50 after 24 to 48 hrs by Annexin V-FITC staining-based flow cytometric analysis (reference value: 0%). In kind it is functional.
The subject of series [15] is MCF7. Briefly: Induction of ROS generation in human MCF7 cells at IC50 after 5 to 6 hrs by DCFDA staining based flow cytometric analysis. The class given is functional, cell-based.
Series [16] has as its system MCF7. Briefly: Induction of apoptosis in human MCF7 cells assessed as viable cells at IC50 after 24 to 48 hrs by Annexin V-FITC staining-based flow cytometric analysis relative to control. In kind it is functional.

Activity calls are given as the source filed them. No cut-off for these calls is given here.

In the case of `O=c1c(Nc2ccc([N+](=O)[O-])cc2)c(-c2ccco2)oc2c(Cl)cc(Cl)cc12`, the outcome in [1] and in [15] was Active. The Activity is 26.5% in [2]; 80.6% in series [3]; 6.54% in series [5]; 8.53% in series [6]; 4.33% in series [7]; “Dose-dependent effect” in series [10]. Moreover, the Activity entry in series [11] is “Dose-dependent effect”; in series [13], 15.9%; in series [14], 1.72%; in [16] it was 55.8%. Also, the half-maximal inhibitory concentration (IC50) in series [4] was found to be 2.12 µM; in series [10], 3.22 µM; in [11], 6.45 µM. Besides, the inhibition result in [8] and in [9] was “Active” each time. Also, the viability at 72 h in series [12] stood at 85%.

Regarding `COc1ccc(Nc2c(-c3ccco3)oc3ccccc3c2=O)cc1`, the result in series [1] and in series [15] was Active. Further, the Activity is 18.7% in series [2]; 87% in series [3]; 4.79% in [5]; 5.13% in [6]; 3.12% in [7]; “Dose-dependent effect” in [10]. Also, the Activity entry in [11] is “Dose-dependent effect”; in series [13] it was 1.21%; in series [14], 0.027%; in [16] it was 80.1%. Also, the 50% inhibitory concentration (IC50) came to 5.56 µM in series [4], 16.2 µM in series [10] and 19.1 µM in series [11]. For the same molecule, the inhibition result in series [8] and in series [9] was “Active” throughout. For the same molecule, in series [12], the viability at 72 h turned out to be 85%.

Consider `O=c1c(Nc2ccc(I)cc2)c(-c2ccco2)oc2c(Cl)cc(Cl)cc12`, for which the result in [1] and in [15] was Active. Besides, the Activity in [2] is 27.9%; in series [3] it was 82.3%; in series [5] it was 2.56%; in [6], 15.2%; in series [7], 0.013%; in series [10] it was “Dose-dependent effect”. Besides, the Activity entry in [11] is “Dose-dependent effect”; in series [13] it was 1.9%; in series [14], 0.15%; in series [16], 70.1%. Also, the IC50 in series [4] was 1.98 µM; in series [10] it was 4.32 µM; in [11], 5.22 µM. Further, the inhibition result in series [8] and in series [9] was “Active” each time. The viability at 72 h in [12] is 85%.
